Among the data in ChEMBL document CHEMBL1136837, “Unified QSAR approach to antimicrobials. 4. Multi-target QSAR modeling and comparative multi-distance study of the giant components of antiviral drug-drug complex networks” (Bioorg Med Chem, 2009) are IC50 values, retold here.

What is called IC50 is the midpoint of a concentration-inhibition curve. Low values mean higher potency, high ones lower potency.

Each structure is given as a SMILES string.

In one experiment the test system is Human alphaherpesvirus 2. The experiment can be described thus: Antiviral activity against Herpes simplex virus 2. It is filed as functional, organism-based. Particulars: Human alphaherpesvirus 2.
A further experiment concerns Human alphaherpesvirus 3. The experiment can be described thus: Antiviral activity against Varicella zoster virus. In kind it is functional, organism-based.
Experiment [1] has as its system Human immunodeficiency virus 1. Kind of experiment: Antiviral activity against HIV1. In kind it is functional, organism-based.
Another experiment concerns Human alphaherpesvirus 1. Kind of experiment: Antiviral activity against Herpes simplex virus 1. Particulars: Human alphaherpesvirus 1. In kind it is functional, organism-based.
The test system of the next experiment is Hepatitis B virus. Kind of experiment: Antiviral activity against Hepatitis B virus. In kind it is functional, organism-based.
For another experiment, the system named is Vaccinia virus. Kind of experiment: Antiviral activity against Vaccinia virus. Particulars: Orthopoxvirus vaccinia. It is filed as functional, organism-based, Orthopoxvirus vaccinia.
The subject of another experiment is Human betaherpesvirus 5. Kind of experiment: Antiviral activity against Human cytomegalovirus. In kind it is functional, organism-based. The following applies: Human betaherpesvirus 5.
Experiment [2] has as its system unidentified influenza virus. Kind of experiment: Antiviral activity against influenza virus. In kind it is functional, organism-based.

Turning to `Nc1nc(NC2CC2)cc(=O)n1CCOCP(=O)(O)O`, the IC50 in the experiment on Human alphaherpesvirus 2 stood at 0.0526 nM; in the experiment on Human alphaherpesvirus 3, 0.164 nM; in experiment [1] it was 0.329 nM; in the experiment with Human alphaherpesvirus 1 it was 0.0526 nM. In the experiment on Hepatitis B virus, `COc1ccccc1/C(Br)=C(\NC(=O)c1ccc([N+](=O)[O-])cc1)C(=O)N1CCCCC1` yielded an IC50 of 2400 nM.

Turning to `Nc1nc(Sc2ccc(Cl)cc2)c2ncn(CCOCP(=O)(OCC(F)(F)F)OCC(F)(F)F)c2n1`, the midpoint of inhibition in the experiment with Hepatitis B virus, the IC50, lay at 120 nM. In the experiment with Hepatitis B virus, `CC(C)COc1ccc(Sc2nc(N)nc3c2ncn3CCOCP(=O)(OCC(F)(F)F)OCC(F)(F)F)cc1` gave an IC50 of 840 nM. Consider `CC(C)Oc1ccc(Sc2nc(N)nc3c2ncn3CCOCP(=O)(OCC(F)(F)F)OCC(F)(F)F)cc1`, for which 290 nM corresponded to half-maximal inhibition in the experiment on Hepatitis B virus (IC50). `COc1ccccc1Sc1nc(N)nc2c1ncn2CCOCP(=O)(OCC(F)(F)F)OCC(F)(F)F`: it took 80 nM to reach half-maximal inhibition with Hepatitis B virus (IC50). With `Cc1c(N)nc(N)nc1OCCOCP(=O)(O)O`, the half-inhibitory concentration (IC50) in the experiment on Human alphaherpesvirus 2 is 1.2 nM; in the experiment with Human alphaherpesvirus 3 it was 0.018 nM; in the experiment on Vaccinia virus it was 0.86 nM; with Human betaherpesvirus 5, 0.72 nM; with Human alphaherpesvirus 1, 1.2 nM. As to `O=c1[nH]c(=O)n([C@H]2C[C@H](O)[C@]3(CO)C[C@H]23)cc1I`, the results for the half-inhibitory concentration (IC50) with Human alphaherpesvirus 2 and in the experiment with Human alphaherpesvirus 1 were 9060 nM and 275000 nM, respectively. On to `Nc1cc(OC[C@H](CO)OCP(=O)(O)O)nc(N)n1`, for which the half-maximal inhibitory concentration (IC50) worked out at 0.017 nM in the experiment on Human alphaherpesvirus 2, 0.0065 nM in the experiment with Vaccinia virus and 0.0048 nM in the experiment on Human alphaherpesvirus 1. Turning to `CC(=O)OC[C@H]1S[C@@H](n2nc(C)c(=S)[nH]c2=O)C[C@@H]1OC(C)=O`, the half-maximal inhibitory concentration (IC50) in the experiment with Human alphaherpesvirus 2 and in the experiment with Human alphaherpesvirus 1 was 8000 nM each time. Regarding `O=c1[nH]c(=O)n([C@H]2C[C@H](O)[C@]3(CO)C[C@H]23)cc1Br`, the figures for the IC50 in the experiment with Human alphaherpesvirus 2 and with Human alphaherpesvirus 1 were 2200 nM and 1230 nM, respectively. Consider `Cc1cn(/C=C2/CC2(CO)CO)c(=O)[nH]c1=O`, for which the IC50 in the experiment on Human alphaherpesvirus 2, with Human alphaherpesvirus 3, with Human betaherpesvirus 5 and in the experiment with Human alphaherpesvirus 1 was 420000 nM in each case.

In experiment [2], `CC(=O)c1c(O)n(O)c2cc(NC(=O)Nc3cccc(C(=O)O)c3)ccc12` displayed a half-maximal inhibitory concentration (IC50) of 14000 nM. In experiment [2], `CCC(=O)c1c(O)n(O)c2cc(NC(=O)c3ccc(Cl)cc3Cl)ccc12` showed a half-maximal inhibitory concentration (IC50) of 45000 nM. On the same count and under the same terms, under `COC(=O)/C(O)=C/C(=O)c1ccccc1` stands 500000 nM.

In the experiment on Vaccinia virus, `CC(NP1(=O)CO[C@@H](Cn2ccc(N)nc2=O)CO1)C(=O)OCCc1ccccc1` (stereo partly specified) had an IC50 of 7100 nM. As to `O=C(Nc1ccc2c(c1)N(O)C(=O)/C2=C(\O)c1ccccc1)c1ccc(NC(=O)c2cccs2)cc1`, the midpoint of inhibition in experiment [2], the IC50, lay at 20000 nM. On the same count and under the same terms, under `NC(=O)/C(O)=C/C(=O)C1CCCCC1` stands 500000 nM.

Consider `O=C(O)/C(O)=C/C(=O)c1ccc(C2CCCCC2)cc1`, for which it took 5000 nM to reach half-maximal inhibition in experiment [2] (IC50).

For `CC(=O)Nc1nc(C)c(S(=O)(=O)Nc2ccc(C(=O)Nc3ccc4c(c3)N(O)C(=O)/C4=C(\O)c3ccccc3)cc2)s1`, it took 32000 nM to reach half-maximal inhibition in experiment [2] (IC50).

As to `CCCCCCCCCCCCCCCCCCOCCOP1(=O)CO[C@@H](Cn2ccc(N)nc2=O)CO1` (stereo partly specified), the half-maximal inhibitory concentration (IC50) with Vaccinia virus was 580 nM. Consider `O=C(/C=C/c1ccccc1Cl)Nc1ccc(C(=O)Nc2ccc3c(c2)N(O)C(=O)/C3=C(\O)c2ccccc2)cc1`, for which, in experiment [2], half-maximal inhibition (IC50) was put at 9500 nM. Still for that read-out and setting: as for `O=C(Nc1ccc2c(c1)N(O)C(=O)/C2=C(\O)c1ccccc1)c1ccc(NS(=O)(=O)c2cccs2)cc1`, the figure is 48000 nM. As to `CN(C)c1cc(O)nc(N)n1`, the half-maximal inhibitory concentration (IC50) with Human alphaherpesvirus 2 amounted to 2.6 nM; in the experiment with Human alphaherpesvirus 3 it was 0.325 nM; with Human alphaherpesvirus 1, 2.6 nM. Consider `CC(C)OP(=O)(COCCOc1cc(N)ncn1)OC(C)C`, for which the IC50 in the experiment on Human alphaherpesvirus 2 worked out at 1.2 nM; with Human alphaherpesvirus 3 it was 0.15 nM; in experiment [1], 6010 nM; in the experiment with Human alphaherpesvirus 1, 1.2 nM.

In the case of `O=C(N/C(C(=O)N1CCCCC1)=C(/Cl)c1ccccc1)c1ccccc1`, the IC50 with Hepatitis B virus was 21400 nM. In the experiment with Vaccinia virus, `Nc1ccn(C[C@@H](CO)OCP(=O)(O)O)c(=O)n1` (stereo in doubt; form 2) [CIDOFOVIR] displayed a concentration for half-maximal inhibition (IC50) of 32000 nM.

In the experiment with Hepatitis B virus, `Cc1cn([C@@H]2O[C@H](CO)[C@@H](O)[C@@H]2F)c(=O)[nH]c1=O` [5-METHYL-2'-FLUOROARAURACIL] gave an IC50 of 830 nM. For `Cc1cn([C@H]2C[C@H](O)[C@]3(CO)C[C@H]23)c(=O)[nH]c1=O` [(NORTH)-METHANOCARBATHYMIDINE], the concentration for half-maximal inhibition (IC50) with Human alphaherpesvirus 1 stood at 120 nM. `Nc1nc2c(ncn2COCCO)c(=O)[nH]1` [ACYCLOVIR] displayed an IC50 with Vaccinia virus of 384 nM. In turn, `Nc1ncnc2c1ncn2CCOCP(=O)(O)O` [ADEFOVIR] came in with an IC50 with Human alphaherpesvirus 1 of 0.024 nM. In turn, `COc1ccc(Sc2nc(N)nc3c2ncn3CCOCP(=O)(OCC(F)(F)F)OCC(F)(F)F)cc1` [ALAMIFOVIR] had an IC50 in the experiment on Hepatitis B virus of 30 nM. `O=C(NO)c1ccccc1` [BENZOHYDROXAMATE] gave an IC50 in experiment [2] of 500000 nM. For the compound `O=c1[nH]c(=O)n([C@H]2C[C@H](O)[C@@H](CO)O2)cc1/C=C/Br` [BRIVUDINE], the IC50 in the experiment with Human alphaherpesvirus 2 was 76 nM; in the experiment on Human alphaherpesvirus 3 it was 29000 nM; in the experiment with Vaccinia virus it was 400000 nM; in the experiment with Human betaherpesvirus 5, 150000 nM; in the experiment with Human alphaherpesvirus 1, 48000 nM.

In the experiment with Hepatitis B virus, `Nc1ccn([C@@H]2CS[C@H](COP(=O)(O)OP(=O)(O)OP(=O)(O)O)O2)c(=O)n1` [LAMIVUDINE TRIPHOSPHATE] gave a concentration for half-maximal inhibition (IC50) of 7.5 nM. Take `Nc1nc(O)c2ncn(CCC(CO)CO)c2n1` [PENCICLOVIR]: it took 103000 nM to reach half-maximal inhibition in the experiment on Hepatitis B virus (IC50). `CC(C)OC(=O)OCOP(=O)(CO[C@H](C)Cn1cnc2c(N)ncnc21)OCOC(=O)OC(C)C` [TENOFOVIR DISOPROXIL] showed an IC50 in the experiment with Vaccinia virus of 157000 nM.
